Values joined by “and” are separate entries in the source; they are usually repeats but may differ in a detail not shown here. Identical values can stand only once.
Columns and labels:
[1] = tested on: Escherichia coli ATCC 11229; experiment: AOAC Method 960.09 Germicidal and Detergent Sanitizing Action of Disinfectants, food contact sanitizing suspension test; assay type: cell-based
Procedure: (§1) The microbial efficacy of the multipurpose sanitizing composition was evaluated for food contact applications. The purpose of the testing is to determine the efficacy of compositions used for sanitizing food contact surfaces, which in the evaluations were pre-cleaned, non-porous surfaces using AOAC Method 960.09 Germicidal and Detergent Sanitizing Action of Disinfectants. […] The test organisms included Staphylococcus aureus ATCC 6538 and Escherichia coli ATCC 11229.
(§2) The pH was adjusted by use of a polycarboxylic acid (unless otherwise noted, such as the polycarboxylate citrate tested at pH 8). In this screening test pH 9, 8, 7, 5, 4, and 3 were tested. “NT” indicates a condition was “Not Tested.”

[2] = tested on: Staphylococcus aureus ATCC 6538; experiment: as above; assay type: cell-based; details: for Average Log Reduction / CFU - Dilution 1E−01 / CFU - Dilution 1E−02 / CFU/mL / Log / Log Reduction: 50 ppm; for Average Log Reduction / CFU - Dilution 1E−01 / CFU - Dilution 1E−02 / CFU/mL / Log: Example 4; for Log Reduction: Example 4, per replicate
Procedure: as §1, §2

[3] = 50 ppm, pH 4, 77° F., Example 4
[4] = 50 ppm, pH 5, 77° F., Example 4
[5] = 50 ppm, pH 6, 77° F., Example 4
[6] = 50 ppm, pH 7, 77° F., Example 3
[7] = 50 ppm, pH 7 as printed (second sample of Table 15), 77° F.
[8] = 50 ppm, pH 7.5-8 (no pH adjustment), 77° F., Example 4
[9] = pH 7.5-8 (no pH adjustment), 77° F.

CCCCCCCC[N+](C)(C)CCCCCCCC.[Cl-] [Bardac LF, dioctyl dimethyl ammonium chloride]
Average Log Reduction ([1]; 30 ppm, pH 5, 120° F.): 3.06 log
CFU - Dilution 1E−01 ([1]; 30 ppm, pH 5, 120° F.): TNTC
CFU - Dilution 1E−02 ([1]; 30 ppm, pH 5, 120° F.): TNTC
CFU/mL ([1]; 30 ppm, pH 5, 120° F.): 3.0E+04 CFU/mL
Log ([1]; 30 ppm, pH 5, 120° F.): 4.48
Log Reduction ([1]; 30 ppm, pH 5, 120° F., per replicate): 3.06 log
Average Log Reduction ([1]; 30 ppm, pH 7, 120° F.): 3.06 log
log reduction E. coli (ATCC 11229) ([1]; 60 ppm, pH 5, 120° F.): 3.06 log
log reduction E. coli (ATCC 11229) ([1]; 60 ppm, pH 7, 120° F.): 3.06 log
log reduction E. coli (ATCC 11229) ([1]; 90 ppm, pH 5, 120° F.): 3.06 log
log reduction E. coli (ATCC 11229) ([1]; 90 ppm, pH 7, 120° F.): 3.06 log

didecyl dimethyl ammonium carbonate/bicarbonate [CarboQuat]
log reduction E. coli (ATCC 11229) ([1]; 20 ppm, pH 5, 120° F.): 5.08 log
log reduction E. coli (ATCC 11229) ([1]; 30 ppm, pH 3, 120° F.): 6.25 log
log reduction E. coli (ATCC 11229) ([1]; 30 ppm, pH 4, 120° F.): 6.88 log
Average Log Reduction ([1]; 30 ppm, pH 5, 104° F.): 5.61 log
CFU - Dilution 1E−01 ([1]; 30 ppm, pH 5, 104° F.): 14 CFU and 28 CFU
CFU - Dilution 1E−02 ([1]; 30 ppm, pH 5, 104° F.): 3 CFU and 6 CFU
Log Reduction ([1]; 30 ppm, pH 5, 104° F., per replicate): 5.76 log and 5.46 log
log reduction E. coli (ATCC 11229) ([1]; 30 ppm, pH 5, citric acid, 120° F.): 6.67 log
log reduction E. coli (ATCC 11229) ([1]; 30 ppm, pH 5, formic acid, 120° F.): 6.67 log
Average Log Reduction ([1]; 30 ppm, pH 7, 104° F.): 3.47 log
CFU - Dilution 1E−01 ([1]; 30 ppm, pH 7, 104° F.): TNTC
CFU - Dilution 1E−02 ([1]; 30 ppm, pH 7, 104° F.): TNTC
CFU/mL ([1]; 30 ppm, pH 7, 104° F.): 3.00E+04 CFU/mL
Log ([1]; 30 ppm, pH 7, 104° F.): 4.48
Log Reduction ([1]; 30 ppm, pH 7, 104° F., per replicate): 3.47 log
Average Log Reduction ([1]; 30 ppm, pH 7, 120° F.): 6.68 log
CFU - Dilution 1E−01 ([1]; 30 ppm, pH 7, 120° F.): 0 CFU
CFU - Dilution 1E−02 ([1]; 30 ppm, pH 7, 120° F.): 0 CFU
CFU/mL ([1]; 30 ppm, pH 7, 120° F.): 1E+01 CFU/mL
Log ([1]; 30 ppm, pH 7, 120° F.): 1.00
Log Reduction ([1]; 30 ppm, pH 7, 120° F., per replicate): 6.68 log
Average Log Reduction ([1]; 30 ppm, pH 8, 120° F.): 3.21 log
CFU - Dilution 1E−01 ([1]; 30 ppm, pH 8, 120° F.): TNTC
CFU - Dilution 1E−02 ([1]; 30 ppm, pH 8, 120° F.): TNTC
CFU/mL ([1]; 30 ppm, pH 8, 120° F.): 3.00E+04 CFU/mL
Log ([1]; 30 ppm, pH 8, 120° F.): 4.48
Log Reduction ([1]; 30 ppm, pH 8, 120° F., per replicate): 3.21 log
log reduction E. coli (ATCC 11229) ([1]; 30 ppm, pH 8, citrate, 120° F.): 3.20 log
Average Log Reduction ([1]; 40 ppm, pH 8, 120° F.): 5.70 log
Log Reduction ([1]; 40 ppm, pH 8, 120° F., per replicate): 5.28 log and 6.12 log
Average Log Reduction [1, 3]: 5.22 log
CFU - Dilution 1E−01 [1, 3]: 44 CFU
CFU - Dilution 1E−02 [1, 3]: 7 CFU and 4 CFU
CFU/mL [1, 3]: 4.6E+02 CFU/mL and 4.4E+02 CFU/mL
Log [1, 3]: 2.67 and 2.64
Log Reduction ([1]; 50 ppm, pH 4, 77° F., Example 4, per replicate): 5.21 log and 5.23 log
log reduction E. coli (ATCC 11229) ([1]; 50 ppm, pH 5, 77° F., Example 3): 6.70 log
Average Log Reduction [1, 4]: 6.87 log
CFU - Dilution 1E−01 [1, 4]: 0 CFU
CFU - Dilution 1E−02 [1, 4]: 0 CFU
CFU/mL [1, 4]: 1.0E+01 CFU/mL
Log [1, 4]: 1.00
Log Reduction ([1]; 50 ppm, pH 5, 77° F., Example 4, per replicate): 6.87 log
log reduction E. coli (ATCC 11229) ([1]; 50 ppm, pH 5, 104° F.): 6.95 log
Average Log Reduction [1, 5]: 4.07 log
CFU - Dilution 1E−01 [1, 5]: TNTC
CFU - Dilution 1E−02 [1, 5]: 84 CFU and 48 CFU
CFU/mL [1, 5]: 8.4E+03 CFU/mL and 4.8E+03 CFU/mL
Log [1, 5]: 3.92 and 3.68
Log Reduction ([1]; 50 ppm, pH 6, 77° F., Example 4, per replicate): 3.95 log and 4.19 log
Average Log Reduction [1, 6]: 3.35 log
CFU - Dilution 1E−01 [1, 6]: TNTC
CFU - Dilution 1E−02 [1, 6]: TNTC
CFU/mL [1, 6]: 3.00E+04 CFU/mL
Log [1, 6]: 4.48
Log Reduction ([1]; 50 ppm, pH 7, 77° F., Example 3, per replicate): 3.35 log
log reduction E. coli (ATCC 11229) ([1]; 50 ppm, pH 7, 104° F.): 6.71 log
Average Log Reduction [1, 7]: 6.70 log
CFU - Dilution 1E−01 [1, 7]: 2 CFU and 1 CFU
CFU - Dilution 1E−02 [1, 7]: 0 CFU
CFU/mL [1, 7]: 2E+01 CFU/mL and 1E+01 CFU/mL
Log [1, 7]: 1.26 and 1.00
Log Reduction ([1]; 50 ppm, pH 7 as printed (second sample of Table 15), 77° F., per replicate): 6.57 log and 6.83 log
Average Log Reduction [1, 8]: 3.40 log
CFU - Dilution 1E−01 [1, 8]: TNTC
CFU - Dilution 1E−02 [1, 8]: TNTC
CFU/mL [1, 8]: 3.0E+04 CFU/mL
Log [1, 8]: 4.48
Log Reduction ([1]; 50 ppm, pH 7.5-8 (no pH adjustment), 77° F., Example 4, per replicate): 3.40 log
log reduction E. coli (ATCC 11229) ([1]; 50 ppm, pH 9, 77° F., Example 3): 3.35 log
log reduction E. coli (ATCC 11229) ([1]; 50 ppm, pH 9, 104° F.): 5.33 log
log reduction E. coli (ATCC 11229) ([1]; 75 ppm, pH 5, 77° F., Example 3): 6.83 log
log reduction E. coli (ATCC 11229) ([1]; 75 ppm, pH 5, 104° F.): 6.95 log
log reduction E. coli (ATCC 11229) ([1]; 75 ppm, pH 7, 77° F., Example 3): 6.83 log
log reduction E. coli (ATCC 11229) ([1]; 75 ppm, pH 7, 104° F.): 6.95 log
log reduction E. coli (ATCC 11229) ([1]; 75 ppm, pH 9, 77° F., Example 3): 6.50 log
log reduction E. coli (ATCC 11229) ([1]; 75 ppm, pH 9, 104° F.): 6.95 log
log reduction E. coli (ATCC 11229) ([1]; 100 ppm, pH 5, 77° F., Example 3): 6.83 log
log reduction E. coli (ATCC 11229) ([1]; 100 ppm, pH 9, 77° F., Example 3): 6.83 log
log reduction S. aureus (ATCC 6538) ([2]; 20 ppm, pH 5, 120° F.): 6.88 log
log reduction S. aureus (ATCC 6538) ([2]; 30 ppm, pH 5, 120° F.): 6.69 log and 6.88 log
log reduction S. aureus (ATCC 6538) ([2]; 30 ppm, pH 8, 120° F.): 6.69 log
log reduction S. aureus (ATCC 6538) ([2]; 40 ppm, pH 8, 120° F.): 6.69 log
Average Log Reduction ([2]; pH 4, 77° F.): 6.89 log
CFU - Dilution 1E−01 ([2]; pH 4, 77° F.): 0 CFU
CFU - Dilution 1E−02 ([2]; pH 4, 77° F.): 0 CFU
CFU/mL ([2]; pH 4, 77° F.): 1.0E+01 CFU/mL
Log ([2]; pH 4, 77° F.): 1.00
Log Reduction ([2]; pH 4, 77° F.): 6.89 log
Average Log Reduction ([2]; pH 5, 77° F.): 6.89 log
CFU - Dilution 1E−01 ([2]; pH 5, 77° F.): 0 CFU
CFU - Dilution 1E−02 ([2]; pH 5, 77° F.): 0 CFU
CFU/mL ([2]; pH 5, 77° F.): 1.0E+01 CFU/mL
Log ([2]; pH 5, 77° F.): 1.00
Log Reduction ([2]; pH 5, 77° F.): 6.89 log
Average Log Reduction ([2]; pH 6, 77° F.): 6.89 log
CFU - Dilution 1E−01 ([2]; pH 6, 77° F.): 0 CFU
CFU/mL ([2]; pH 6, 77° F.): 1.0E+01 CFU/mL
Log ([2]; pH 6, 77° F.): 1.00
Log Reduction ([2]; pH 6, 77° F.): 6.89 log
Average Log Reduction [2, 9]: 6.89 log
CFU - Dilution 1E−01 [2, 9]: 0 CFU
CFU - Dilution 1E−02 [2, 9]: 0 CFU
CFU/mL [2, 9]: 1.0E+01 CFU/mL
Log [2, 9]: 1.00
Log Reduction [2, 9]: 6.89 log

— patent US20250261636A1, “QUATERNARY AMMONIUM SANITIZING COMPOSITION” (ECOLAB USA INC., priority 2020, published 2025)
